# From patent US9539223B2, “Methods for treating bacterial infections” (Neoculi Pty Ltd., priority 2013, dated 2017)
# Values joined by “and” are separate entries in the source; they are usually repeats but may differ in a detail not shown here. Equal entries are not always repeated. Where two headings read alike, the source gives them in different places.
# Legend:
# [1] = system: methicillin-resistant and methicillin-susceptible Staphylococcus aureus; test: Minimum bactericidal concentration, S. aureus clinical isolates
# Description: The MBC was defined as the lowest drug concentration at which 99.95% of the original inoculum was eliminated.
# [2] = cited from earlier work
# [3] = system: E. faecalis USA01; test: Kill kinetics assay, E. faecalis USA01; type: cell-based, Enterococcus faecalis
# Description: S. aureus KC01 and E. faecalis USA01, not determined to be MRSA or VRE, respectively, were grown overnight on Columbia SBA at 37° C. A few colonies of bacteria were then suspended in CAMHB (cation-adjusted Mueller Hinton broth) and adjusted to OD600 of 0.08 to 0.10. The bacterial suspension was diluted 1:10. […] The tubes were incubated at 37° C., with constant shaking. In order to determine the number of viable bacteria present at various time points, a 100 μL aliquot was removed from each tube and diluted. Then, 100 μL of each dilution were spread onto colony count agar, in duplicate, and incubated for 48 h at 37° C. After 24 h the numbers of colonies present on each plate were counted and therefore the number of viable bacteria present in the original suspension enumerated. Plates were re-checked after 48 hours.
# [4] = system: S. pneumoniae strain D39; test: Micro-broth dilution time kill studies; type: cell-based, Streptococcus pneumoniae
# Description: Negative dilution controls were subtracted from the median growth value to obtain a suitable indicator of overall bacterial production. The 96-well tray was incubated at 37° C. in 5% CO2 and read every 2 hrs for the first 12 hrs followed by final reads at 24 and 48 hrs at 600 nm.
# [5] = system: Staphylococcus spp. Strain MK1; test: Checkerboard synergy study, Staphylococcus spp. MK1; type: cell-based
# Description: Firstly, the MIC of each antibiotic alone was determined in accordance to CLSI standard guidelines.
# According to the checkerboard guidelines, Synergy (S) was defined as an FICI<0.5. No effect (NE) was defined as 0.5<FICI<4. Antagonism (A) was defined as a 4<FICI.
# [6] = Precipitation of NCL812 in assay media; type: physicochemical
# [7] = Visual analysis of solubility in diluents and media; type: physicochemical
# [8] = system: S. aureus KC01 and MK01; test: MBC test (CLSI), non-MRSA S. aureus isolates
# [9] = system: S. pneumoniae strain D39; test: MBC time kill studies (relative MBC at time points); type: cell-based, Streptococcus pneumoniae
# Description: MBC kill kinetics assays involved the preparation of three 96-well microtitre trays.
smiles,measurement,setting,value
"N=C(N/N=C/c1ccc(Cl)cc1)N/N=C/c1ccc(Cl)cc1 [NCL812, 1,2-bis[(E)-(4-chlorophenyl)methylideneamino]guanidine]",MBC range,[1],4 to 16 mg/L
same,isolates with MBC equivalent to the MIC,[1],83.33%
same,solubility,[2]; PBS,precipitation
same,solubility,"[2]; water containing 4% DMSO, following initial dilution in 100% DMSO",complete solubility
same,rise in bacterial numbers,"[3]; 32 and 64 μg/mL, until the 6 h time point",~1 log10
same,reduction in CFU/mL compared to the growth control,[3]; 2 h,2 log10
same,reduction in CFU/mL compared to the original bacterial numbers,[3]; 2 h,greater than 1 log10
same,bacterial numbers compared to the growth control,"[3]; 24 h, all concentrations",increased to almost the same level as the growth control
same,effect of choline chloride in the media on growth,"[4]; 5% choline chloride, 48 hour, compared to positive and growth controls",no significant difference in growth
same,concentrations resulting in no bacterial growth for 48 hrs,[4]; D39,≥ 16 µg/mL
same,sub-inhibitory concentrations (growth similar to unexposed controls over 48 hour),[4]; D39,≤ 2 µg/mL
same,entered a log phase of growth at,[4]; D39 treated with ≦4 μg/ml NCL812,6 hrs
same,MIC,"[5]; read-out: NCL812 MIC Alone, Staphylococcus spp. Strain MK1",2 mg/L
same,NCL812 MIC With Antibiotic,[5]; with Penicillin G,2 mg/L
same,NCL812 MIC With Antibiotic,[5]; with Sulfamethoxazole,1 mg/L and 2 mg/L
same,Precipitation of NCL812 observed at,[6]; MIC plates in Mueller Hinton II Broth without inoculum,≥ 8 µg/mL
same,precipitation observed at,"[6]; Mueller Hinton broth II (DNA and RNA synthesis assays), MIC […] μg/ml",4 to 8 fold the MIC
same,solubility,[7]; DMSO,soluble
same,appearance when dissolved,[7]; cation-adjusted Mueller-Hinton II broth (CAMHB),cloudy solution
same,visual solubility,[7]; diluent CAMHB,Turbid
same,visual solubility,[7]; diluent DMSO,Transparent
same,visual solubility,[7]; diluent PBS,Precipitate
same,visual solubility,[7]; media 4% LHB:CAMHB,Turbid
same,visual solubility,[7]; media 10% horse serum-supplemented broth,Precipitate
same,MBC test: growth on Sheep Blood Agar,"[8]; S. aureus KC01, 2 μg/ml",+
same,MBC test: growth on Sheep Blood Agar,"[8]; S. aureus KC01, 4 μg/ml",0 and +
same,MBC test: growth on Sheep Blood Agar,"[8]; S. aureus KC01, 8 μg/ml",0 and +
same,MBC test: growth on Sheep Blood Agar,"[8]; S. aureus KC01, 16 μg/ml",0
same,MBC test: growth on Sheep Blood Agar,"[8]; S. aureus KC01, 32 μg/ml",0
same,MBC test: growth on Sheep Blood Agar,"[8]; S. aureus KC01, 64 μg/ml",0
same,MBC test: growth on Sheep Blood Agar,"[8]; S. aureus KC01, […]",0
same,MBC test: Number of Bacteria Growing after 24 hours per ml of sample,"[8]; S. aureus MK01, 2 μg/ml",5 CFU/ml
same,MBC test: growth on Sheep Blood Agar,"[8]; S. aureus MK01, 2 μg/ml",0
same,MBC test: growth on Sheep Blood Agar,"[8]; S. aureus MK01, 4 μg/ml",0
same,MBC test: growth on Sheep Blood Agar,"[8]; S. aureus MK01, 8 μg/ml",0
same,MBC test: growth on Sheep Blood Agar,"[8]; S. aureus MK01, 16 μg/ml",0 (N) and 0
same,MBC test: growth on Sheep Blood Agar,"[8]; S. aureus MK01, 32 μg/ml",0 (N) and 0
same,MBC test: growth on Sheep Blood Agar,"[8]; S. aureus MK01, 64 μg/ml",0 (N) and 0
same,consistent bactericidal effect elicited after,"[9]; from initial exposure, relative MBC over 48 hr",6 h
same,decrease in MBC,[9]; within 5 hrs,~3 fold
